Holding throughout (type): biochemical
Test [1] has as its target T1, opioid receptor delta (Homo sapiens, UniProt P41143).
T1 construct: expressed in transfected cells
Description: GTPγ[35S] binding assay, antagonism of BW-373U86. Conditions: read-out: Delta functional (GTPγ[35S] binding Ki). As to the method: (§1) Membranes were prepared from cells as described (Bass et al, 1996). GTPγ[5S] binding assays were performed in a 96 well FlashPlate™ format in duplicate using […] GTPγ[^35S] and 5 μg membrane per well in assay buffer composed of 50 mM Tris HCl, pH 7.4, 5 mM MgCl2, 1 mM EDTA, 100 mM NaCl, 30 μM GDP, 0.1% bovine serum albumin and the following protease inhibitors: 100 μg/ml bacitracin, 100 μg/ml benzamidine, 5 μg/ml aprotinin, 5 μg/ml leupeptin. The assay mix was then incubated at 30° C. with increasing concentrations of antagonist (10^−10 M to 10^−5 M) for 10 minutes and challenged with the agonists BW-373U86 (1 nM), dynorphin-A (10 nM), […] (1 μM) for opioid receptors delta, kappa, and mu, respectively. The assays were performed at 30° C. for one hour. The FlashPlates were then centrifuged at 2000×g for 10 minutes. Stimulation of GTPγ[^35S] binding was then quantified using a Wallac Microbeta and Ki calculations were done using Prism™ by Graphpad.
In general terms: GTPγS resists hydrolysis and so accumulates on activated G proteins.

The target of test [2] is T2, opioid receptor kappa (Homo sapiens, UniProt P41145).
T2 construct: expressed in transfected cells
T2 sequence (P41145 whole entry): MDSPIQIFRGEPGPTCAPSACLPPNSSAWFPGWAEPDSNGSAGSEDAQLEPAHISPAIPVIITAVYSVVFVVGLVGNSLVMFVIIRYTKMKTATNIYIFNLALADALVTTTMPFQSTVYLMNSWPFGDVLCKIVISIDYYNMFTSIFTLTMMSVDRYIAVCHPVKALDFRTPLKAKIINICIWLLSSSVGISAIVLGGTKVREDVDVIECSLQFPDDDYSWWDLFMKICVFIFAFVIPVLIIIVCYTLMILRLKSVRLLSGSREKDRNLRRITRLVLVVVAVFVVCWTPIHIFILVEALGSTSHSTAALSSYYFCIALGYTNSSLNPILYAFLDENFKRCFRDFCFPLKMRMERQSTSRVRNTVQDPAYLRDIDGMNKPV
Description: GTPγ[35S] binding assay, antagonism of dynorphin-A. Conditions: read-out: Kappa functional (GTPγ[35S] binding Ki). The method, then:
as §1

In test [3] the target is T3, opioid receptor mu (Homo sapiens, UniProt P35372).
T3 construct: expressed in transfected cells
T3 sequence (P35372 whole entry): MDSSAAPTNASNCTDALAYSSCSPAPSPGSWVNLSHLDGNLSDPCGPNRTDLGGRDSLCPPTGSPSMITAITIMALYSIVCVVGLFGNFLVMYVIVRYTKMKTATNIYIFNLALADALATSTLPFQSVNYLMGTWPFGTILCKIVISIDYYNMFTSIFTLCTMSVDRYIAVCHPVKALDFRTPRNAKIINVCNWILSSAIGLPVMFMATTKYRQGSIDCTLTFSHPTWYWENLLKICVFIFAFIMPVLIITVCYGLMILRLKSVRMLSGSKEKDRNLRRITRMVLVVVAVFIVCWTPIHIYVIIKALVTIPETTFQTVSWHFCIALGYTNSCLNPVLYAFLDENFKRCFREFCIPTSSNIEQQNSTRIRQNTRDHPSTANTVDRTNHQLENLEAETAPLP
Description: GTPγ[35S] binding assay, antagonism of endorphin. Conditions: read-out: Mu functional (GTPγ[35S] binding Ki). The method, then: as §1

pKi: −log10 of the molar value.

T1 sequence (P41143 whole entry): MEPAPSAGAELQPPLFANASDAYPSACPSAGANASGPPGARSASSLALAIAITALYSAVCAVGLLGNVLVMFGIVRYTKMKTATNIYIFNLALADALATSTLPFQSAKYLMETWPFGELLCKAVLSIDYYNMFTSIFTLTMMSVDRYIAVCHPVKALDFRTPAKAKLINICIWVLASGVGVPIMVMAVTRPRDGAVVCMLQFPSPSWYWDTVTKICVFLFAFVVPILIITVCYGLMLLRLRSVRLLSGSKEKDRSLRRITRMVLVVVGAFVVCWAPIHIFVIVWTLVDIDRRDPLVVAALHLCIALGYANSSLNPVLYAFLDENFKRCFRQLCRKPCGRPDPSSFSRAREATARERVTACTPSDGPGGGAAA

With `CC(C)CCNCc1ccc(-c2ccc(C(N)=O)cc2)cc1` [4B-01], the values for the pKi in test [1], in test [2] and in test [3] were 7.85, 7.05 and 6.76, respectively.

With `CC(C)CCNCc1ccc(-c2ccc(C(N)=O)cc2C(F)(F)F)cc1` [4B-02], the pKi in test [1] is 7.81; in test [2] it was 7.53; in test [3], 7.24.

For `Cc1cc(C(N)=O)ccc1-c1ccc(CNCc2ccccc2)cc1` [4B-03], the pKi in test [1] was 8.40; in test [2], 8.74; in test [3], 8.50.

Consider `Cc1cc(C(N)=O)ccc1-c1ccc(CNCCC2CCOCC2)cc1` [4B-05], for which the figures for the pKi in test [1], in test [2] and in test [3] were 9.05, 8.47 and 8.39, respectively.

With `Cc1cc(C(N)=O)ccc1-c1ccc(CNCCOC(C)C)cc1` [4B-06], the pKi was 8.19 in test [1], 8.07 in test [2] and 7.99 in test [3].

In the case of `Cc1cc(C(N)=O)ccc1-c1ccc(CNCCc2ccccc2)cc1` [4B-09], the pKi was 8.74 in test [1], 8.21 in test [2] and 8.56 in test [3].

As to `Cc1cc(C(N)=O)ccc1-c1ccc(CNCc2cccc(Cl)c2)cc1` [4B-10], the pKi in test [1] was 9.22; in test [2], 8.80; in test [3], 9.03.

With `Cc1cc(C(N)=O)ccc1-c1ccc(CNCCC2CC2)cc1` [4B-11], the pKi in test [1] is 8.15; in test [2], 8.24; in test [3], 8.08.

Regarding `CC(C)CCNCc1ccc(-c2c(F)cc(C(N)=O)cc2F)cc1` [4B-12], the pKi in test [1] was 7.77; in test [2] it was 7.57; in test [3] it was 7.32.

Take `Cc1cc(C(N)=O)ccc1-c1ccc(CN2Cc3ccccc3C2)cc1` [4B-13]: the pKi in test [1] is 6.80; in test [2], 7.48; in test [3] it was 6.68.

For `Cc1cc(C(N)=O)cc(C)c1-c1ccc(CNCCC(C)C)cc1` [4B-14], the pKi in test [1] is 8.20; in test [2] it was 7.53; in test [3], 7.06.

With `CC(C)CCNCc1ccc(-c2ccc(C(N)=O)c(F)c2)cc1` [4B-15], the pKi in test [1] was 6.45; in test [2], 6.56; in test [3], 6.53.

Consider `Cc1cc(C(N)=O)ccc1-c1ccc(CNCCOc2ccccc2)cc1` [4B-16], for which the pKi was 9.12 in test [1], 8.12 in test [2] and 8.55 in test [3].

Regarding `Cc1cc(C(N)=O)ccc1-c1ccc(CNCc2cccc(F)c2)cc1` [4B-17], the figures for the pKi in test [1], in test [2] and in test [3] were 8.95, 8.92 and 8.59, respectively.

As to `Cc1cc(C(N)=O)ccc1-c1ccc(CNCc2ccc3c(c2)CC(C)(C)O3)cc1` [4B-18], the pKi in test [1] is 8.61; in test [2], 7.73; in test [3], 8.24.

On to `Cc1cc(C(N)=O)ccc1-c1ccc(CNC(C)(C)c2ccccc2)cc1` [4B-19], for which the pKi is 7.71 in test [1], 7.63 in test [2] and 6.90 in test [3].

In the case of `Cc1cc(C(N)=O)ccc1-c1ccc(CNCc2ccc3c(c2)CCO3)cc1` [4B-20], the pKi in test [1] was 8.38; in test [2], 7.46; in test [3] it was 8.15.

Consider `Cc1cc(C(N)=O)ccc1-c1ccc(CNC2CCc3ccccc32)cc1` (stereo not drawn) [4B-21], for which the figures for the pKi in test [1], in test [2] and in test [3] were 8.90, 9.06 and 8.82, respectively.

Consider `Cc1cc(C(N)=O)ccc1-c1ccc(CNC2CCOc3c(C)cccc32)cc1` (stereo not drawn) [4B-22], for which the values for the pKi in test [1], in test [2] and in test [3] were 8.29, 8.31 and 8.12, respectively.

Take `Cc1cc(C(N)=O)ccc1-c1ccc(CNC2(c3cccc(Cl)c3)CC2)cc1` [4B-23]: the pKi in test [1] was 7.33; in test [2], 7.85; in test [3] it was 6.58.

As for `Cc1cc(C(N)=O)ccc1-c1ccc(CNC2(c3ccccc3)CC2)cc1` [4B-24], the pKi in test [1] is 7.64; in test [2], 6.40; in test [3], 5.89.

As for `Cc1cc(C(N)=O)ccc1-c1ccc(CNC(C)(C)c2cccc(Cl)c2)cc1` [4B-25], the values for the pKi in test [1], in test [2] and in test [3] were 7.65, 8.21 and 7.42, respectively.

Source of the values: US7615651B2, “Diaryl, dipyridinyl and aryl-pyridinyl derivatives and uses thereof” (Pfizer Inc., priority 2006, dated 2009).
